Values quoted from earlier work in US20250127900A1, “STABLE PHARMACEUTICAL COMPOSITIONS” (MANKIND PHARMA LTD., priority 2021, published 2025).

Tests used:
[1] = for Acceptable intake, EMA: EMA limit; for Acceptable intake, FDA: FDA limit
[2] = in vivo

Structure (SMILES)	Acceptable intake, EMA [1] [ng/day]	Acceptable intake, FDA [1] [ng/day]	LD50 [2] [mg/kg]
CCN(CC)N=O [N-Nitrosodiethylamine]	26.5	26.5	
CN(C)N=O [N-Nitrosodimethylamine]	96	96	10
CC(C)N(N=O)C(C)C [N-Nitrosodiisopropylamine]	26.5	26.5	
